Results: ChEMBL document CHEMBL3091361, “Synthesis, structure elucidation and in vitro anticancer activities of novel derivatives of diethyl (2E)-2-[(2E)-(1-arylimidazolidin-2-ylidene)hydrazono]succinate and ethyl (4-oxo-8-aryl-4,6,7,8-tetrahydroimidazo[2,1-c][1,2,4]triazin-3-yl)acetate” (Bioorg Med Chem, 2013)

What was measured:
[1] = Selectivity ratio for human HeLa cells over human HSF cells after 48 hrs; type: ADME, cell-based; settings: HeLa cells versus HSF cells
[2] = Selectivity ratio for human HeLa cells over human HSF cells after 24 hrs; type: ADME, cell-based; settings: HeLa cells versus HSF cells
[3] = Selectivity ratio for human HeLa cells over human HSF cells after 72 hrs; type: ADME, cell-based; settings: HeLa cells versus HSF cells
[4] = Selectivity ratio for human T47D cells over human HSF cells after 72 hrs; type: ADME, cell-based; settings: T47D cells versus HSF cells
[5] = Selectivity ratio for human RPMI8226 cells over human HSF cells; type: ADME, cell-based, RPMI-8226; settings: RPMI8226 cells versus HSF cells
[6] = Toxicity in ip dosed albino-Swiss mouse; type: organism-based; settings: in vivo
[7] = Cytotoxicity against human MM1S cells at 50 ug/ml after 24 hrs by BrdU incorporation assay relative to control; type: functional; settings: MM1.S, read-out: GI
HeLa [8] = test: Cytotoxicity against human HeLa cells at 50 ug/ml after 48 hrs by BrdU incorporation assay relative to control; type: functional; settings: read-out: GI
T47D [9] = test: Cytotoxicity against human T47D cells at 50 ug/ml after 72 hrs by BrdU incorporation assay relative to control; type: functional; settings: read-out: GI
[10] = Cytotoxicity against human HSF cells at 50 ug/ml after 72 hrs by BrdU incorporation assay relative to control; type: cell-based; settings: read-out: GI
[11] = Cytotoxicity against human MM1R cells at 50 ug/ml after 24 hrs by BrdU incorporation assay relative to control; type: functional; settings: MM.1R, read-out: GI
[12] = Cytotoxicity against human MM1R cells at 50 ug/ml after 72 hrs by BrdU incorporation assay relative to control; type: functional; settings: MM.1R, read-out: GI
[13] = Cytotoxicity against human HSF cells at 50 ug/ml after 48 hrs by BrdU incorporation assay relative to control; type: cell-based; settings: read-out: GI
[14] = Cytotoxicity against human MM1S cells at 50 ug/ml after 72 hrs by BrdU incorporation assay relative to control; type: functional; settings: MM1.S, read-out: GI
[15] = Cytotoxicity against human MM1R cells at 50 ug/ml after 48 hrs by BrdU incorporation assay relative to control; type: functional; settings: MM.1R, read-out: GI
HeLa [16] = test: Cytotoxicity against human HeLa cells at 50 ug/ml after 24 hrs by BrdU incorporation assay relative to control; type: functional; settings: read-out: GI
[17] = Cytotoxicity against human HSF cells at 50 ug/ml after 24 hrs by BrdU incorporation assay relative to control; type: cell-based; settings: read-out: GI
T47D [18] = test: Cytotoxicity against human T47D cells at 50 ug/ml after 24 hrs by BrdU incorporation assay relative to control; type: functional; settings: read-out: GI
[19] = Cytotoxicity against human MM1S cells at 50 ug/ml after 48 hrs by BrdU incorporation assay relative to control; type: functional; settings: MM1.S, read-out: GI
[20] = Cytotoxicity against human HSF cells at 50 ug/ml by BrdU incorporation assay; type: cell-based; settings: TDE = time-dependent effect
HeLa [21] = test: Cytotoxicity against human HeLa cells at 50 ug/ml after 72 hrs by BrdU incorporation assay relative to control; type: functional; settings: read-out: GI
T47D [22] = test: Cytotoxicity against human T47D cells at 50 ug/ml after 48 hrs by BrdU incorporation assay relative to control; type: functional; settings: read-out: GI

SMILES: O=c1c(-c2ccco2)nnc2n1CCN2c1ccccc1Cl
- selectivity ratio at 48 h [1]: 4
- selectivity ratio at 24 h [2]: 8
- selectivity ratio at 72 h [3]: 5

SMILES: COc1ccccc1N1CCn2c1nnc(-c1ccco1)c2=O
- selectivity ratio at 72 h [4]: 14
- selectivity ratio at 72 h [3]: 16

SMILES: COc1ccc(N2CCn3c2nnc(-c2ccccc2)c3=O)cc1
- selectivity ratio [5]: 1.7
- LD50 [6]: > 2000 mg/kg

SMILES: CCOC(=O)Cc1nnc2n(c1=O)CCN2c1ccc(Cl)cc1
- inhibition of growth at 50 µg/mL [7]: 45%
- inhibition of growth at 50 µg/mL (HeLa [8]): 30%
- inhibition of growth at 50 µg/mL (T47D [9]): 50%
- inhibition at 72 h, 50 ug/ml [10]: 80%
- inhibition of growth at 50 µg/mL [11]: 80%
- inhibition of growth at 50 µg/mL [12]: 90%
- inhibition at 48 h, 50 ug/ml [13]: 75%
- inhibition of growth at 50 µg/mL [14]: 90%
- inhibition of growth at 50 µg/mL [15]: 85%
- inhibition of growth at 50 µg/mL (HeLa [16]): 20%
- inhibition at 24 h, 50 ug/ml [17]: 50%
- inhibition of growth at 50 µg/mL (T47D [18]): 50%
- inhibition of growth at 50 µg/mL [19]: 75%
- Activity [20]: tde
- inhibition of growth at 50 µg/mL (HeLa [21]): 40%
- inhibition of growth at 50 µg/mL (T47D [22]): 50%

SMILES: O=c1c(-c2ccco2)nnc2n1CCN2c1c(Cl)cccc1Cl
- selectivity ratio at 48 h [1]: > 5
- selectivity ratio at 24 h [2]: 8
- selectivity ratio at 72 h [3]: > 6
